≈ marks a conversion by molar mass, not a printed value. Calls of active or inactive are those of the source. The calls are words filed in the database; no cut-off is given here.

Experimental findings from ChEMBL document CHEMBL4261494, “Design, synthesis and biological evaluation of novel Schiff base-bridged tetrahydroprotoberberine triazoles as a new type of potential antimicrobial agents” (Medchemcomm, 2017) are described below.

Data set [1] concerns Staphylococcus aureus. It is filed as functional. As to conditions: ATCC 25923, 24 h.
For data set [2], the system named is Staphylococcus aureus. It is filed as functional. Particulars: N315, 24 h.
Another data set deals with Bacillus spizizenii. The format is functional. Particulars: ATCC 6633, 24 h.
The subject of the next data set is Micrococcus luteus. The format is functional. Particulars: ATCC 4698, 24 h.
Data set [3] has as its system Escherichia coli. The format is functional. As to conditions: JM109, 24 h.
Data set [4] deals with Escherichia coli. The format is functional. As to conditions: DH52, 24 h.
The test system of another data set is Shigella dysenteriae. The format is functional. Particulars: 24 h.
The next data set has as its system Pseudomonas aeruginosa. It is filed as functional. As to conditions: ATCC 27853, 24 h.
Another data set deals with Proteus vulgaris. It is filed as functional. Particulars: ATCC 13315, 24 h.
The test system of another data set is Candida albicans. It is filed as functional. Particulars: for Activity: ATCC 10231.
The next data set concerns Salmonella typhi. As to the kind of experiment: microbe, parasite or virus in culture. Particulars: Salmonella enterica, 24 h.
The test system of another data set is Kregervanrija fluxuum. It is filed as functional. As to conditions: ATCC 9888.
In the next data set the test system is Cyberlindnera jadinii. The format is functional. As to conditions: for Activity: ATCC 9950.
A further data set has as its system Aspergillus flavus. The format is functional. Particulars: ATCC 204304.
A further data set has as its system Saccharomyces cerevisiae. The format is functional. As to conditions: 24 h.
The nature of data set [5]: Aqueous solubility of the compound in pH 7.4 phosphate buffer at 1 mg after 3 hrs by UV absorption analysis. The format is physicochemical.
The test system of another data set is DNA. As to the kind of experiment: Induction of Escherichia coli supercoiled pUC19 DNA cleavage at 0.0125 mM after 16 hrs in absence of Zn2+ by ethidium bromide staining-based agarose gel electrophoresis method. The format is nucleic-acid assay.

With `COc1cc(/C=N/n2cnnc2)c2c(c1OCc1cccc(F)c1)CN1CCc3cc4c(cc3C1C2)OCO4` (stereo not given), the MIC was 256 µg/mL (≈ 485 µM) in the data set on Staphylococcus aureus [1]; 512 µg/mL (≈ 971 µM) with Staphylococcus aureus [2]; 512 µg/mL (≈ 971 µM) against Bacillus spizizenii; 32 µg/mL (≈ 60.7 µM) with Micrococcus luteus; > 512 µg/mL against Escherichia coli [3]; 256 µg/mL (≈ 485 µM) against Escherichia coli [4]. Moreover, the MIC in the data set with Shigella dysenteriae stood at 256 µg/mL (≈ 485 µM); with Pseudomonas aeruginosa it was 16 µg/mL (≈ 30.3 µM); in the data set on Proteus vulgaris, 64 µg/mL (≈ 121 µM); with Candida albicans (ATCC 10231, 24 h) it was 0.5 µg/mL (≈ 0.948 µM); with Salmonella typhi, 512 µg/mL (≈ 971 µM).
In general, solubility refers to the dissolved amount per volume that the medium holds. A lower solubility goes with little dissolved substance. With `COc1cc(C=O)c2c(c1O)CN1CCc3cc4c(cc3C1C2)OCO4` (stereo not given), the MIC in the data set with Staphylococcus aureus [1] turned out to be 128 µg/mL (≈ 362 µM); against Staphylococcus aureus [2] it was 256 µg/mL (≈ 724 µM); against Bacillus spizizenii it was 32 µg/mL (≈ 90.6 µM); with Micrococcus luteus, 2 µg/mL (≈ 5.66 µM); with Escherichia coli [3], 256 µg/mL (≈ 724 µM); against Escherichia coli [4], 256 µg/mL (≈ 724 µM). Also, the MIC against Shigella dysenteriae amounted to 512 µg/mL (≈ 1450 µM); in the data set on Pseudomonas aeruginosa it was 16 µg/mL (≈ 45.3 µM); with Proteus vulgaris, 64 µg/mL (≈ 181 µM); against Saccharomyces cerevisiae it was 1 µg/mL (≈ 2.83 µM); in the data set on Salmonella typhi, 2 µg/mL (≈ 5.66 µM). Besides, the result in the data set with Candida albicans, in the data set on Kregervanrija fluxuum, in the data set on Cyberlindnera jadinii and with Aspergillus flavus was inactive. For the same compound, the solubility at 3 h in [5] was 79 µg/mL (≈ 224 µM).
For `COc1cc(/C=N/n2cnnc2)c2c(c1O)CN1CCc3cc4c(cc3C1C2)OCO4` (stereo not given), the MIC in the data set with Staphylococcus aureus [1] amounted to 64 µg/mL (≈ 153 µM); in the data set on Staphylococcus aureus [2], 16 µg/mL (≈ 38.1 µM); in the data set on Bacillus spizizenii, 512 µg/mL (≈ 1220 µM); in the data set on Micrococcus luteus, 1 µg/mL (≈ 2.38 µM); against Escherichia coli [3] it was 128 µg/mL (≈ 305 µM); in the data set with Escherichia coli [4], 128 µg/mL (≈ 305 µM). In addition, the MIC is 256 µg/mL (≈ 610 µM) with Shigella dysenteriae, 128 µg/mL (≈ 305 µM) in the data set with Pseudomonas aeruginosa, 64 µg/mL (≈ 153 µM) against Proteus vulgaris and 128 µg/mL (≈ 305 µM) against Salmonella typhi. For the same compound, the outcome in the data set on Candida albicans, with Kregervanrija fluxuum, with Cyberlindnera jadinii and with Aspergillus flavus was inactive. The solubility at 3 h in [5] stood at 392 µg/mL (≈ 935 µM).
Turning to `COc1ccc2cc3[n+](cc2c1OC)CCc1cc2c(cc1-3)OCO2` [BERBERINE], the MIC was 512 µg/mL in the data set with Staphylococcus aureus [1]; 128 µg/mL in the data set on Staphylococcus aureus [2]; > 512 µg/mL in the data set on Bacillus spizizenii; > 512 µg/mL in the data set with Micrococcus luteus; > 512 µg/mL against Escherichia coli [4]; 256 µg/mL in the data set with Shigella dysenteriae. Further, the MIC with Pseudomonas aeruginosa is 256 µg/mL. This compound came in with a solubility at 3 h in data set [5] of 85 µg/mL. The outcome with DNA was inactive.
For the compound `CCCCCCCCCCCCOc1c(OC)cc(/C=N/n2cnnc2)c2c1CN1CCc3cc4c(cc3C1C2)OCO4` (stereo not given), the MIC against Staphylococcus aureus [1] is 256 µg/mL (≈ 436 µM); in the data set on Staphylococcus aureus [2] it was 512 µg/mL (≈ 871 µM); in the data set with Bacillus spizizenii, 256 µg/mL (≈ 436 µM); in the data set with Micrococcus luteus, 512 µg/mL (≈ 871 µM); in the data set on Escherichia coli [3], 512 µg/mL (≈ 871 µM); in the data set on Escherichia coli [4] it was 256 µg/mL (≈ 436 µM). The MIC stood at 512 µg/mL (≈ 871 µM) with Shigella dysenteriae, 512 µg/mL (≈ 871 µM) against Pseudomonas aeruginosa, 256 µg/mL (≈ 436 µM) against Proteus vulgaris and 256 µg/mL (≈ 436 µM) against Salmonella typhi. The compound further gave a solubility at 3 h in data set [5] of 97 µg/mL (≈ 165 µM).
For the compound `COc1cc(/C=N/n2cnnc2)c2c(c1OCc1ccc(Cl)cc1)CN1CCc3cc4c(cc3C1C2)OCO4` (stereo not given), the MIC in the data set on Staphylococcus aureus [1] is 8 µg/mL (≈ 14.7 µM); in the data set with Staphylococcus aureus [2] it was 32 µg/mL (≈ 58.8 µM); with Bacillus spizizenii it was 16 µg/mL (≈ 29.4 µM); in the data set on Micrococcus luteus it was 16 µg/mL (≈ 29.4 µM); against Escherichia coli [3], 8 µg/mL (≈ 14.7 µM); in the data set on Escherichia coli [4], 32 µg/mL (≈ 58.8 µM). For the same compound, the MIC was found to be 64 µg/mL (≈ 118 µM) against Shigella dysenteriae; 4 µg/mL (≈ 7.35 µM) against Pseudomonas aeruginosa; 8 µg/mL (≈ 14.7 µM) in the data set with Proteus vulgaris; 0.5 µg/mL (≈ 0.919 µM) in the data set with Cyberlindnera jadinii (Williopsis jadinii, ATCC 9950, 24 h); 8 µg/mL (≈ 14.7 µM) in the data set on Salmonella typhi. Besides, the solubility at 3 h in data set [5] turned out to be 613 µg/mL (≈ 1130 µM).
For the compound `COc1cc(/C=N/n2cnnc2)c2c(c1OCc1ccc(F)cc1)CN1CCc3cc4c(cc3C1C2)OCO4` (stereo not given), the MIC with Staphylococcus aureus [1] was 32 µg/mL (≈ 60.7 µM); with Staphylococcus aureus [2] it was 8 µg/mL (≈ 15.2 µM); in the data set on Bacillus spizizenii, 32 µg/mL (≈ 60.7 µM); in the data set with Micrococcus luteus, 2 µg/mL (≈ 3.79 µM); in the data set on Escherichia coli [3], 32 µg/mL (≈ 60.7 µM); against Escherichia coli [4], 16 µg/mL (≈ 30.3 µM). Besides, the MIC is 16 µg/mL (≈ 30.3 µM) against Shigella dysenteriae, 8 µg/mL (≈ 15.2 µM) against Pseudomonas aeruginosa, 128 µg/mL (≈ 243 µM) in the data set on Proteus vulgaris and 4 µg/mL (≈ 7.58 µM) against Salmonella typhi. Besides, the concentration in solution in data set [5] (solubility at 3 h) was 185 µg/mL (≈ 351 µM).
